Results published in patent publication US9815810B1, “Method of cannabinoid preservation through crystallization and other crystal structures” (Deep Cell […]., priority 2016, dated 2017).
Where “and” joins values, the source holds several entries; their conditions need not be identical. Equal values may be shown once.

Tests used:
[1] = Cannabinoid profile of crystalline product samples by HPLC-DAD-MS analysis (cannabinoid preservation); settings: for Cannabinoid quantity, Avg R103A-C: average of Samples R103A-C; for Cannabinoid quantity, Avg R103A-C / Cannabinoid quantity in Control R104 / Cannabinoid quantity in Sample S103 / Cannabinoid quantity in Sample R103A / Cannabinoid quantity in Sample R103B: without rapid cooling process; for Cannabinoid quantity in Control R104: control crystalline product; for Cannabinoid quantity in Sample S201 / Cannabinoid quantity in Sample S103 / Cannabinoid quantity in Sample R104A / Cannabinoid quantity in (Retest) Sample R104A / Cannabinoid quantity in Sample R104B / Cannabinoid quantity in Sample R103A / Cannabinoid quantity in Sample R103B: crystalline product; for Cannabinoid quantity in Sample S201 / Cannabinoid quantity in Sample S103 / Change in cannabinoid quantity, Sample S201 compared to Sample S103: sodium chloride; for Cannabinoid quantity in Sample S201 / Cannabinoid quantity in Sample R104A / Cannabinoid quantity in (Retest) Sample R104A / Cannabinoid quantity in Sample R104B: with rapid cooling process; for Cannabinoid quantity in Sample S103: from RB-Fat; for Cannabinoid quantity in Sample R104A: original test; for Cannabinoid quantity in Sample R104B: stored for three months before being tested; for Cannabinoid quantity in Sample R103A / Cannabinoid quantity in Sample R103B: from RB Fat; for Change in cannabinoid quantity, Sample S201 compared to Sample S103: with vs without rapid cooling process
[2] = Cannabinoid profile of the cannabis extract by LCMS analysis; settings: cannabis extract labeled RB Fat

Compound | Cannabinoid quantity, Avg R103A-C ([1]; sucrose) | Cannabinoid quantity in Control R104 ([1]; sucrose) | Cannabinoid quantity in Sample S201 [1] [mg/g] | Cannabinoid quantity in Sample S103 [1] | Cannabinoid quantity in Sample R104A ([1]; sucrose) | Cannabinoid quantity in (Retest) Sample R104A ([1]; sucrose) [mg/g] | Cannabinoid quantity in Sample R104B ([1]; sucrose) [mg/g] | Cannabinoid quantity in Sample R103A ([1]; sucrose) [mg/g] | Cannabinoid quantity in Sample R103B ([1]; sucrose) [mg/g] | Change in cannabinoid quantity, Sample S201 compared to Sample S103 [1] | Cannabinoid quantity in Sample RB Fat [2] [mg/mL] | Increase in quantity, Sample R104A compared to the control sample ([1]; sucrose, rapid cooling process vs Control R104) [%]
CCCCCc1cc(O)c2c(c1)OC(C)(CCC=C(C)C)C=C2 (centres unmarked) [CBC, Cannabichromene] | 0.45 mg/g | 0.8 mg/g | 0.84 | 0.94 mg/g | 1.18 mg/g | 1.15 | 1.22 | 0.47 | 0.45 | marginal differences | 0.63 | 
C=C(C)[C@@H]1CCC(C)=C[C@H]1c1c(O)cc(CCCCC)cc1O [CBD, Cannabidiol, reference compound] | No detectable quantities | 0.17 mg/g | 0.11 | 0.22 mg/g | 0.08 mg/g | 0.15 | 0.17 |  |  | marginal differences |  | 
C=C(C)[C@@H]1CCC(C)=C[C@H]1c1c(O)cc(CCCCC)c(C(=O)O)c1O [CBD-A, Cannabidiolic acid] | No detectable quantities | undetectable quantities |  |  | negligible or no detectable quantities |  |  |  |  |  | 0.12 | 
CCCCCc1cc(O)c(C/C=C(\C)CCC=C(C)C)c(O)c1 [CBG, Cannabigerol] | 0.28 mg/g | 0.82 mg/g | 0.93 | 0.58 mg/g | 1.34 mg/g | 1.29 | 1.25 | 0.32 | 0.26 | marginal differences | 0.69 | 
CCCCCc1cc(O)c(C/C=C(\C)CCC=C(C)C)c(O)c1C(=O)O [CBG-A, cannabigerolic acid] | no quantity of CBG-A was detected | undetectable quantities |  |  | negligible or no detectable quantities |  |  |  |  |  | 1.22 | 
CCCCCc1cc2c(c(O)c1C(=O)O)C1C3C(CCC3(C)O2)C1(C)C (centres unmarked) [CBL-A, cannabicyclol acid] | 0.39 mg/g |  |  |  |  |  |  | 0.46 | 0.35 |  | 0.38 | 
CCCCCc1cc(O)c2c(c1)OC(C)(C)c1ccc(C)cc1-2 [CBN, Cannabinol] | 1.03 mg/g | 0.57 mg/g | 0.79 | 2.33 mg/g | 1.17 mg/g | 1.26 | 1.28 | 0.93 | 1 | significant reduction | 0.3 | 
CCCCCc1cc2c(c(O)c1C(=O)O)[C@@H]1C=C(C)CC[C@H]1C(C)(C)O2 [THC-A, Tetrahydrocannabinolic acid] | 5.46 mg/g |  |  |  |  |  |  | 7.13 | 6.18 |  | 37.07 | 
CCCc1cc(O)c2c(c1)OC(C)(C)[C@@H]1CCC(C)=C[C@@H]21 [THCV, Tetrahydrocannabivarin] | 0.16 mg/g | 0.34 mg/g | 0.41 | 0.51 mg/g | 0.54 mg/g | 0.52 | 0.55 | 0.14 | 0.2 | marginal differences |  | 
CCCc1cc2c(c(O)c1C(=O)O)C1C=C(C)CCC1C(C)(C)O2 (centres unmarked) [THCV-A] | 0.02 mg/g | undetectable quantities |  |  | negligible or no detectable quantities |  |  | 0.05 |  |  | 0.26 | 
CCCCCc1cc(O)c2c(c1)OC(C)(C)[C@@H]1CC=C(C)C[C@@H]21 [Δ8-THC, Δ-8-tetrahydrocannabinol] | 0.06 mg/g | 1.7 mg/g |  |  | no detectable quantities | 1.36 | 0.14 |  |  |  |  | 
CCCCCc1cc(O)c2c(c1)OC(C)(C)[C@@H]1CCC(C)=C[C@@H]21 [Δ9-THC, Δ-9-tetrahydrocannabinol, reference compound] | 15.79 mg/g | 35.37 mg/g | 40.04 | 21.93 mg/g and 21.92 mg/g | 57.13 mg/g | 57.45 | 60.42 | 15.56 | 16.18 | two-fold increase | 12.85 | 62
